Like-named read-outs stand apart in the source and are kept apart here. Some results are limits rather than exact numbers.

The target of one data set is T1, PI3Kδ (Homo sapiens, UniProt O00329).
T1 construct: purchased Millipore 14-604-K
Description: PI3Kδ activity inhibition (Kinase-Glo). It counts as biochemical. To be noted: Table 4, graded. The protocol: Detecting the inhibition capability of the compound to PI3Kα and PI3Kδ activities with Kinase-Glo (purchased from Promege Company; Catalog No.: V3771). […] The reaction system also comprises substrates as PIP2 (4, 5-diphosphoinositide, purchased from Life Technologies Company) and ATP (triphosadenine, purchased from Sigma Company). The reaction buffer system comprises 50 mM HEPES (4-hydroxyethylpiperazine ethane sulfonic acid), 3 mM MgCl2, 1 mM EGTA (ethylene glycol bis(2-amino ethylether)quadrol), 100 mM NaCl, 0.03% CHAPS (3-[3-(cholamidopropyl)dimethylamino]-1-propanesulfonic acid), 2 mM DTT (dithiothreitol). The pH value of the reaction buffer is 7.5. […] Mixing the system evenly for incubation under ambient temperature (for 1 h in PI3Kα test and for 2 h in PI3Kδ test). After incubation, adding 10 μL Kinase-Glo which has been preheated to ambient temperature into each reaction well to terminate the reaction; shaking it in dark place for 15 min after it is mixed evenly, then measuring the fluorescence intensity with a microplate reader and analyzing the result data with the software GraphPad Prism.
(§1) Calculating the value of IC50 as per the formula: Y=background data+(top data−background data)/(1+10^((Log IC50−X)*rate of curve))
(§2) Where, Y refers to the inhibition ratio (%) and X refers to the compound concentration.
For orientation: Kinase-Glo reads ATP consumption through a luciferase reaction.

The test system of data set [1] is A2780s cells (ovarian cancer). In words: Cell proliferation inhibition, A2780s (MTT). It is filed as cell-based. The settings on record: Homo sapiens, 96 h incubation, read-out: Proliferation IC50, Ovarian cancer A2780s. In outline:
(§3)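 Cells seeded at 2000-3000/well; adherent lines dosed after attachment, then 96 h incubation with compound. Viability read by MTT for solid-tumour lines (HCT116, A2780s) and CCK-8 for MV4-11; IC50 from four-parameter logistic fit of inhibition ratio versus concentration.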

Another data set concerns the target T2, PI3Kα (Homo sapiens, UniProt P42336).
T2 construct: purchased Invitrogen PV4788
Description: PI3Kα activity inhibition (Kinase-Glo). It is filed as biochemical. The settings on record: read-out: PI3Kα IC50. The method, boiled down:
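Kinase-Glo luminescence read-out of remaining ATP after PI3K reaction with PIP2 and ATP substrates in 50 mM HEPES pH 7.5, 3 mM MgCl2, 1 mM EGTA, 100 mM NaCl, 0.03% CHAPS, 2 mM DTT. Incubated at ambient temperature, 1 h for PI3Kα, 2 h for PI3Kδ. IC50 from four-parameter fit of % inhibition versus concentration.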

The test system of data set [2] is SUDHL-4 cells (B-cell lymphoma). In words: Proliferation inhibition, SUDHL-4 (cck-8). It is filed as cell-based. The settings on record: Homo sapiens, SU-DHL-4; 96 h incubation. The text has this:
(§4) Calculating the value of IC50 as per the formula: Y=background data+(top data−background data)/(1+10^((Log IC50−X)*rate of curve)). Where, Y refers to the inhibition ratio (%) and X refers to the compound concentration.

Data set [3] relates to U266 cells (multiple myeloma). Description: Proliferation inhibition, U266 (cck-8). It is filed as cell-based. To be noted: Homo sapiens, U-266; 96 h incubation.
Excerpt: as §4

In data set [4] the test system is MV4-11 subcutaneous tumor. To be noted: 10 mg/kg i.v., once per two days, 22 days. The text has this: During drug administration, measuring the weight and gross tumor volume of the mice per 2 days and keeping a record. The calculation formula is as V=π/6×A^2×B, where, where, V=gross tumor volume (mm^3), A=tumor width (mm) and B=tumor length (mm). Observing and keeping a record for the survival condition of the tested animals. After drug discontinuance, killing the mice through cervical dislocation and peeling off their tumors as per the operation specification of animal experiment. Evaluating the inhibition capability of the compounds to tumor activities by calculating the tumor inhibitory rate with the formula as: tumor inhibitory rate=(1−tumor weight of treatment group/tumor weight of control group)×100%. Analyzing and comparing the difference between each treatment group and control group with the method of t-test. The grading of significance level of difference is: ***, P<0.001; **, P<0.01; *, P<0.05; no statistical significance (ns), P>0.05.

Data set [5] concerns OCI-LY1 cells (B-cell lymphoma). Description: Proliferation inhibition, OCI-LY1 (cck-8). It is filed as cell-based. The settings on record: Homo sapiens, 96 h incubation.
Excerpt: as §4

The test system of data set [6] is acetylated histone H3 (Ac-H3) in A2780s cells. Description: Induction of histone H3 acetylation in A2780s cells (cytoblot). It is filed as cell-based. The settings on record: Homo sapiens, 6 h treatment. The protocol: (§5) Specific operation: After the treatment, washing each well once with 50-100 μl of cold TBS buffer [with the composition as 20 mM Tris (trismetyl aminomethane), pH7.5] and fixing it with 100 μL of 4% pre-cooled paraformaldehyde at 4° C. for 1 h; after paraformaldehyde is washed off, adding 50 μL of pre-cooled methyl alcohol in each well and evenly spreading at 4° C. for 5 min; after methyl alcohol is washed off, washing it once with the TBS buffer containing 3% skim milk powder and adding 50 μL of antibody fluid, oscillating it slightly at 4° C. and incubating overnight. For determination of Ac—H3, the antibody fluid is prepared by diluting Ac—H3 antibody and horseradish peroxide coupled secondary antibody to a same system with the TBS buffer containing 3% skim milk powder (Ac—H3 antibody is purchased from Santa Cruz Company and diluted at a ratio of 1:100; horseradish peroxide coupled secondary antibody is purchased from Jackson Company and diluted at a ratio of 1:2000); for determination of acetylated Ac-α-tubulin, the antibody fluid is prepared by diluting Ac-α-tubulin antibody and horseradish peroxide coupled secondary antibody to a same system with the TBS buffer containing 3% skim milk powder (Ac-α-tubulin antibody is purchased from Santa Cruz Company and diluted at a ratio of 1:100; horseradish peroxide coupled secondary antibody is purchased from Jackson Company and diluted at a ratio of 1:2000).
(§6) Calculating the value of IC50 as per the formula: Y=background data+(top data−background data)/(1+10^((Log EC50−X)*rate of curve)) Where, Y refers to the activating rate (%) and X refers to the compound concentration.

In data set [7] the test system is Ramos cells (B-cell lymphoma). Description: Proliferation inhibition, Ramos (cck-8). It is filed as cell-based. The settings on record: Homo sapiens, 96 h incubation.
Excerpt: as §4

A further data set addresses T3, PI3Kβ (Homo sapiens, UniProt P42338).
T3 construct: purchased Millipore 14-603-K
Description: PI3Kβ activity inhibition (ADP-Glo). It is filed as biochemical. To be noted: Table 4, graded. The protocol: (§7) Detecting the inhibition capability of the compound to PI3Kβ and PI3Kγ activities with ADP-Glo (purchased from Promege Company; Catalog No.: v9102/3). […] The reaction system also comprises substrates as PIP2 and ATP. The reaction buffer system comprises 50 mM HEPES, 3 mM MgCl2, 1 mM EGTA, 100 mM NaCl, 0.03% CHAPS and 2 mM DTT. The pH value of the reaction buffer is 7.5. […] Mixing the system evenly for incubation under ambient temperature for 1 h; getting a new 384 well plate and transferring 5 μL reaction liquid from the each well of original 384 well plate to the corresponding wells of the new 384 well plate; adding 5 μL ADP-Glo which has been preheated to ambient temperature into each new reaction well to terminate the reaction; oscillating it slowly in dark place for 40 min's incubation after it is mixed evenly; adding 10 μL testing liquid in each reaction well, oscillating it for 1 min to mix evenly and incubating it for 1 h, then measuring the fluorescence intensity with a microplate reader and analyzing the result data with the software GraphPad Prism.
as §1, §2
In general terms: ADP-Glo first removes unused ATP, then detects ADP through luciferase.

The test system of data set [8] is MV4-11 cells (acute myeloid leukemia). Description: Cell proliferation inhibition, MV4-11 (cck-8). It counts as cell-based. The settings on record: Homo sapiens, 96 h incubation, read-out: Proliferation IC50, Acute myeloid leukemia MV4-11. The method, boiled down:
as §3

For data set [9], the system named is RPMI-8226 cells (multiple myeloma). In words: Proliferation inhibition, RPMI-8226 (cck-8). It is filed as cell-based. The settings on record: Homo sapiens, 96 h incubation.
Excerpt: as §4

The test system of data set [10] is acetylated Ac-α-tubulin in A2780s cells. Description: Induction of α-tubulin acetylation in A2780s cells (cytoblot). It counts as cell-based. The settings on record: Homo sapiens, 6 h treatment, read-out: Ac-Tub EC50. The protocol:
as §5, §6

Data set [11] deals with HBL-1 cells (B-cell lymphoma). In words: Proliferation inhibition, HBL-1 (cck-8). It is filed as cell-based. To be noted: Homo sapiens, HBL1; 96 h incubation.
Excerpt: as §4

Data set [12] has as its system MM1S cells (multiple myeloma). In words: Proliferation inhibition, MM1S (cck-8). It counts as cell-based. The settings on record: Homo sapiens, MM1.S; 96 h incubation.
Excerpt: as §4

The subject of data set [13] is hct116 cells (colon cancer). In words: Cell proliferation inhibition, hct116 (MTT). It is filed as cell-based. The settings on record: Homo sapiens, HCT-116; 96 h incubation; read-out: Proliferation IC50, Colon cancer hct116. In outline:
as §3

Data set [14] addresses T4, PI3Kγ (Homo sapiens, UniProt P48736).
T4 construct: purchased Invitrogen PR8641C
Description: PI3Kγ activity inhibition (ADP-Glo). It is filed as biochemical. The settings on record: Table 4, graded. The protocol:
as §7, §1, §2

Data set [15] concerns PI3Kγ. The settings on record: read-out: inhibition value to activity of PI3Kγ; literature [1]; cited from earlier work.

T2 sequence (P42336 whole entry, species assumed): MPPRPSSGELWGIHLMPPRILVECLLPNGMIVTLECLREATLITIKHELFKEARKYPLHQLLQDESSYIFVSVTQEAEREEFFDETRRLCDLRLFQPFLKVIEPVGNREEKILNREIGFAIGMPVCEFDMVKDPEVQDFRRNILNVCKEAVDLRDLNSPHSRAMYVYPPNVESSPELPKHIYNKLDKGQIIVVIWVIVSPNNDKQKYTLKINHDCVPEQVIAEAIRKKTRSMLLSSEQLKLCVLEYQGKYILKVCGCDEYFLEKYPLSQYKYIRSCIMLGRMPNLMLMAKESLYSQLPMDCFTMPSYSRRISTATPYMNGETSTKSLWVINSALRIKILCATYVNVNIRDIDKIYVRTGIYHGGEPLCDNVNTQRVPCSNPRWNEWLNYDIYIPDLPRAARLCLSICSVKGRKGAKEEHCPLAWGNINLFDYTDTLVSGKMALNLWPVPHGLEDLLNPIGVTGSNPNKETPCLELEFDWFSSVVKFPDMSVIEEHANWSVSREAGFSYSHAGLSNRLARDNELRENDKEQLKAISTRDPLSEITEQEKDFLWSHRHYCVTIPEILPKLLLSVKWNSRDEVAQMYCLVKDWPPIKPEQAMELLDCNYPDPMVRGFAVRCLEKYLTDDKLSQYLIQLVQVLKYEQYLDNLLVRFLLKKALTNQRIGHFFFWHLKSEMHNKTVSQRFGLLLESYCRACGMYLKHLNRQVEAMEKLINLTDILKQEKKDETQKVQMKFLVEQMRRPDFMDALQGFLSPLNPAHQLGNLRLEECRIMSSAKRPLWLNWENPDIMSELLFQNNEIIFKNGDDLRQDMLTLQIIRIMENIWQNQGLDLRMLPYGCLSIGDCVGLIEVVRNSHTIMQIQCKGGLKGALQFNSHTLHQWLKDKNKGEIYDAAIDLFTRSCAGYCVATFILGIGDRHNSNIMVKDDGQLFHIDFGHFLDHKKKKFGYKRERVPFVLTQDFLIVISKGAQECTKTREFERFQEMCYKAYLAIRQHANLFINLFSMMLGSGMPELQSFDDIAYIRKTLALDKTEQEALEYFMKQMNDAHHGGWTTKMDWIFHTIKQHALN
T2 sequence (P27986 whole entry partner, species assumed): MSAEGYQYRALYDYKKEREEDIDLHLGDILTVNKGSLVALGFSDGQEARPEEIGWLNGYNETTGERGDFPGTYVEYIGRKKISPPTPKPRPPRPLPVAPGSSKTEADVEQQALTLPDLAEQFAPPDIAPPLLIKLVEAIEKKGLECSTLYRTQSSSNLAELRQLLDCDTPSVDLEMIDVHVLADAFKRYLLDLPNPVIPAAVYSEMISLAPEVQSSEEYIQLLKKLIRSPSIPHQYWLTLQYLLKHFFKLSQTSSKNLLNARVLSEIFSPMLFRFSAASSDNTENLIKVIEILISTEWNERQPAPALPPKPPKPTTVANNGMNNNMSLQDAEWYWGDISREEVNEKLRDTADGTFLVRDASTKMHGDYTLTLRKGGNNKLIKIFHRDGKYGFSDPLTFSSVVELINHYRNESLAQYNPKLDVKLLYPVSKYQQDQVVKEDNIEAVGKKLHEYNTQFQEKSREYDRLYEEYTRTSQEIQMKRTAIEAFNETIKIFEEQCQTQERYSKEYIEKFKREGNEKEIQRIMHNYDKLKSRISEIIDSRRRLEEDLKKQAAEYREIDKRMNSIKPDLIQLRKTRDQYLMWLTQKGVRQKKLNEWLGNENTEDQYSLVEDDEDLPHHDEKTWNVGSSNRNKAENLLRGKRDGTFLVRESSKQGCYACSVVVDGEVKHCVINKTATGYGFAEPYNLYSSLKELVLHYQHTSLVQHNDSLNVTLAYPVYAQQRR
T4 sequence (P48736 whole entry): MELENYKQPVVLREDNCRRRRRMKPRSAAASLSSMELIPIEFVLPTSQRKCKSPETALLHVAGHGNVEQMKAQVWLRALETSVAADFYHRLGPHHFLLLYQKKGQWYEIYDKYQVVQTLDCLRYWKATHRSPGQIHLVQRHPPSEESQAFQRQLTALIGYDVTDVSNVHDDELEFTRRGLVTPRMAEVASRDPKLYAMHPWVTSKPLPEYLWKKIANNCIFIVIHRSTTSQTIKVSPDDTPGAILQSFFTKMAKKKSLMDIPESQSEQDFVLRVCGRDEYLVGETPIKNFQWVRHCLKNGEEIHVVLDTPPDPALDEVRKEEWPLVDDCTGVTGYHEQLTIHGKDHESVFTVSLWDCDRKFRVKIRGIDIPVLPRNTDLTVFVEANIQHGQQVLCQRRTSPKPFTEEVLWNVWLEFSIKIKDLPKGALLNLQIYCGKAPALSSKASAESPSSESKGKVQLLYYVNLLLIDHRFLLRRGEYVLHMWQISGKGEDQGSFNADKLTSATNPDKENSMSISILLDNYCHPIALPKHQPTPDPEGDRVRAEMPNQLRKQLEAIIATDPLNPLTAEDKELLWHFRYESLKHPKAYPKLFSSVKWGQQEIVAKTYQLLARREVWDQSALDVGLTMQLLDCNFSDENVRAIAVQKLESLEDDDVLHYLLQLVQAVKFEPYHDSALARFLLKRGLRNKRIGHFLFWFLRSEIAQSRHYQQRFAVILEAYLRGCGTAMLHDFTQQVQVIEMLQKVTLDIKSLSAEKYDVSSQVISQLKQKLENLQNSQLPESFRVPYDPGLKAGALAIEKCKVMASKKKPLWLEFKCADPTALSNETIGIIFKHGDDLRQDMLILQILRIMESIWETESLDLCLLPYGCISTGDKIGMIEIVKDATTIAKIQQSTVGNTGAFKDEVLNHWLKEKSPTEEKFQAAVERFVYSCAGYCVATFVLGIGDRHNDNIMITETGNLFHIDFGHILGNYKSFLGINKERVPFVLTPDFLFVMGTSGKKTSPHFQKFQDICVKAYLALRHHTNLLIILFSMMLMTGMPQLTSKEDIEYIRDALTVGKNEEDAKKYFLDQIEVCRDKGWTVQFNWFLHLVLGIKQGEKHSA
T1 sequence (O00329 whole entry): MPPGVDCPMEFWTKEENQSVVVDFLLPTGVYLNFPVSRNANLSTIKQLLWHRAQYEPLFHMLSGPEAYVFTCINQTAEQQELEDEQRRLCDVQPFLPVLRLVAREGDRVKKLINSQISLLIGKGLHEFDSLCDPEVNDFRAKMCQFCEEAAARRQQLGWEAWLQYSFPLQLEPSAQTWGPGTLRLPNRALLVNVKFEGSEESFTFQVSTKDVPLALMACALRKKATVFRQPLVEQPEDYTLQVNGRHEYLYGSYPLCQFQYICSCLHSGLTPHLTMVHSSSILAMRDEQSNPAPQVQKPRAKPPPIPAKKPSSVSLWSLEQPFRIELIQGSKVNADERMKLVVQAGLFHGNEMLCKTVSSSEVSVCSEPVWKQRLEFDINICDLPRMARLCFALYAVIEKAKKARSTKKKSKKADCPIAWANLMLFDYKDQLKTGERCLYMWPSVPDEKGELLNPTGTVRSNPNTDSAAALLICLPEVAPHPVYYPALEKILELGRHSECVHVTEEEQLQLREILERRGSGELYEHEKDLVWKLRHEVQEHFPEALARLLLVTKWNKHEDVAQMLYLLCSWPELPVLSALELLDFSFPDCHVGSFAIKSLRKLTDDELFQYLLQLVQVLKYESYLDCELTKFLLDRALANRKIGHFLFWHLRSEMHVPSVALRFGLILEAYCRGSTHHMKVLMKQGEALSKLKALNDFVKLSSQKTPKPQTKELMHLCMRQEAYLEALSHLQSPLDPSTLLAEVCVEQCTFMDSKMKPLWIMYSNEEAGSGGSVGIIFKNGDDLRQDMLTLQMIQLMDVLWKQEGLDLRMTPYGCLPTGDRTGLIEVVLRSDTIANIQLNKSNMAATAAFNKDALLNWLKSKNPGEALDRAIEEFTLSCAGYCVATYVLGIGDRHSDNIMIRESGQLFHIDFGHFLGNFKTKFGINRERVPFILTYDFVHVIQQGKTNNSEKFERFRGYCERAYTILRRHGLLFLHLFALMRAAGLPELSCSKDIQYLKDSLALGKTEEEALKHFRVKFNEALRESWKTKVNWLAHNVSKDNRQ
T1 sequence (P27986 whole entry partner): as the sequence (P27986 whole entry partner, species assumed) above
T3 sequence (P42338 whole entry, species assumed): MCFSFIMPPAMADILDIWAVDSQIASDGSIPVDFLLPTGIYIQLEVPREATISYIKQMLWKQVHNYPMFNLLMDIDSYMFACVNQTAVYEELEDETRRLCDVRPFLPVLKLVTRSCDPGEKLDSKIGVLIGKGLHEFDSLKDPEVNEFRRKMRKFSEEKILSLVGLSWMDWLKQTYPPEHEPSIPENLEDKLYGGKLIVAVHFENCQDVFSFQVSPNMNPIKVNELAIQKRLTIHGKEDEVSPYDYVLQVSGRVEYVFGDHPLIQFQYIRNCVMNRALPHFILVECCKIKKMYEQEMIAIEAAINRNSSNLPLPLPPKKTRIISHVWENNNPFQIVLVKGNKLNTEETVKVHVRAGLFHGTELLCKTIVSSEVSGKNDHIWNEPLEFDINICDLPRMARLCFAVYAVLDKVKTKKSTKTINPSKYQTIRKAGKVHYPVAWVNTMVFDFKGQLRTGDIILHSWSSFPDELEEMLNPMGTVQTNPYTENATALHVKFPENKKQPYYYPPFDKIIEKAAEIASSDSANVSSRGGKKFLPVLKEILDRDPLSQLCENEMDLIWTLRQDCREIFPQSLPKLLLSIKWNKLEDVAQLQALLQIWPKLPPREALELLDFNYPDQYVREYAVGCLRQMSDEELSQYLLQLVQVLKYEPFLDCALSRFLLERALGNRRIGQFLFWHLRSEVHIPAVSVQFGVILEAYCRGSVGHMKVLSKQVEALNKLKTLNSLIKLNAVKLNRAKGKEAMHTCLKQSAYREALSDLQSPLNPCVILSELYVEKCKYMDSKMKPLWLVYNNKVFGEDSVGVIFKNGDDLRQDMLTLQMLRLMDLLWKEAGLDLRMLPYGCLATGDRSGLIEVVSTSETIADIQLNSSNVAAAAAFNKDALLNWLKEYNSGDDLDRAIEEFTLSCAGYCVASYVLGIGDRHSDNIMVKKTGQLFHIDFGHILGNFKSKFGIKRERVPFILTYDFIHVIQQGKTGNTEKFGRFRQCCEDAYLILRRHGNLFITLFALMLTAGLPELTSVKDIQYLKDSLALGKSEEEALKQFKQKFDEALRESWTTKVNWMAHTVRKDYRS
T3 sequence (P27986 whole entry partner, species assumed): as the sequence (P27986 whole entry partner, species assumed) above

The EC50 is the concentration at which the effect is half-maximal. As to `CN(Cc1nc2c(N3CCOCC3)nc(-c3ccncc3)nc2n1C)c1ncc(C(=O)NO)cn1` [CLJ-8, 2-(((2-(4-pyridyl)-9-methyl-6-morpholine-9H-purine-8-yl))methyl(methyl)amino)-N-hydroxyl pyrimidine-5-formamide], the IC50 was > 10 µM against PI3Kδ; 0.1 to 10 nM in [1]; 1 to 10 µM at PI3Kα (Table 1, graded); 1 to 10 µM at PI3Kα (Table 4, graded); 1 to 10 nM in [2]; 1 to 10 nM in data set [3]. For the same compound, the IC50 in data set [5] was 1 to 10 nM; in data set [7], 0.1 to 1 nM; at PI3Kβ it was > 10 µM; in [8], 0.1 to 10 nM; in data set [9], 1 to 10 nM; in [11], 1 to 10 nM. In addition, the IC50 was 0.1 to 1 nM in data set [12], 10 to 100 nM in [13] and > 10 µM at PI3Kγ [14]. Further, the “Final survival condition (survived individuals/total individuals)” value in data set [4] is listed as 5/6. Moreover, the 50% effective concentration (EC50) in [6] and in [10] was 100 to 200 nM each time.

For the compound `COc1ccc(-c2nc(N3CCOCC3)c3sc(CN(C)c4ncc(C(=O)NO)cn4)cc3n2)cn1` [CUDC-907], the IC50 with PI3Kγ [15] was 39 nM.

(Values after US10227347B2, “Purinyl-N-hydroxyl pyrimidine formamide derivative, preparation methods and uses thereof” (Guizhou Bailing Group Pharmaceutical CO., LTD., priority 2015, dated 2019).)
